The source of these data is ChEMBL document CHEMBL6109084 (Eur J Med Chem, 2025).

The target of one data set is Chymotrypsin (Homo sapiens, UniProt Q99895+P17538+P40313+Q6GPI1). As to the kind of experiment: Inhibition of chymotrypsin (unknown origin) using N-Suc-Ala-Ala-Pro-Phe-pNA as substrate incubated for 30 mins followed by substrate addition and measured after 60 mins by microplate reader analysis. The format is protein assay.
A short description of data set [1]: Acute toxicity in C57BL/6J mouse assessed as effect on serum aspartate aminotransferase level at 60 to 100 mg/kg, po measured after 24 hrs. Particulars: in vivo, dose 60-100 mg/kg. The format is organism-based.
A short description of data set [2]: Acute toxicity in C57BL/6J mouse assessed as effect on serum AST level at 60 to 100 mg/kg, po administered as single dose for 14 days. The format is organism-based. To be noted: in vivo, 336 h, dose 60-100 mg/kg, time 14 day.

As usually defined, the IC50 is the concentration at which inhibition is half-maximal. In the case of `COc1cn(Cc2cc(-c3ccc(N)nc3F)ccn2)c(=O)cc1-c1cc(Cl)ccc1-n1cnnn1`, the IC50 at Chymotrypsin is given as above 1000 nM. Moreover, the Activity result in data set [1] and in data set [2] was “Non-toxic” each time.
